In ChEMBL document CHEMBL1201862, “PubChem BioAssay data set” (2004):
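These data come from cells grown in 96-well plates and exposed to compound for 48 hours at five concentrations. GI50 = concentration required for 50% inhibition of growth.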 Active and inactive are the calls of the source. No stated cut-off is given here; in the data, active = GI50 up to about 1.1 µM and inactive = higher.

Experiments:
Assay in all cases: NCI anticancer screen, dose series, 48 h
[1] = test system: NCI-H460
[2] = test system: SF-295
[3] = test system: HCT-15
[4] = test system: HOP-62
[5] = test system: K562
[6] = test system: DMS-114
[7] = test system: IGROV-1
[8] = test system: 786-0
[9] = test system: SF-268
[10] = test system: SK-MEL-5
[11] = test system: EKVX
[12] = test system: HT-29
[13] = test system: MOLT-4
[14] = test system: HCT-116
[15] = test system: SNB-19
[16] = test system: T47D
[17] = test system: MDA-MB-231
[18] = test system: NCI/ADR-RES
[19] = test system: DU-145
[20] = test system: Hs-578T

| SMILES | GI50 [1] | GI50 [2] | GI50 [3] [µM] | GI50 [4] | GI50 [5] | GI50 [6] | GI50 [7] | GI50 [8] | GI50 [9] | GI50 [10] | GI50 [11] | GI50 [12] | GI50 [13] | GI50 [14] | GI50 [15] | GI50 [16] | GI50 [17] | GI50 [18] | GI50 [19] | GI50 [20] |
| --- | --- | --- | --- | --- | --- | --- | --- | --- | --- | --- | --- | --- | --- | --- | --- | --- | --- | --- | --- | --- |
| COc1ccc2c(c1OC)C1=C(C2=O)c2cc3c(cc2CCN1)OCO3 | 32.4 µM (inactive) | 33.5 µM (inactive) | 29.4 | 48.6 µM (inactive) | 25.1 µM (inactive) | 22.6 µM (inactive) | 68.1 µM (inactive) | 31.9 µM (inactive) | 41.9 µM (inactive) | 33.1 µM (inactive) | 46.9 µM (inactive) | 18.9 µM (inactive) | 21.6 µM (inactive) | 32.8 µM (inactive) | – | – | – | – | – | – |
| Cc1ccc(N(C(=O)CC(=O)N2N=C(c3ccccc3)C(/N=N/c3ccc([N+](=O)[O-])cc3)C2=O)C(=O)c2ccc(Cl)cc2)cc1 (stereo not given) | 19 µM (inactive) | 9.2 µM (inactive) | 13.2 | 10.3 µM (inactive) | 24.7 µM (inactive) | 20 µM (inactive) | 16.8 µM (inactive) | 14.4 µM (inactive) | 9.04 µM (inactive) | 16.9 µM (inactive) | 99.5 µM (inactive) | 31 µM (inactive) | > 42.1 µM (inactive) | 8.59 µM (inactive) | 17.3 µM (inactive) | – | – | – | – | – |
| O=C(Cc1ccccc1)NN1C(=O)C(Cl)C1c1cccc([N+](=O)[O-])c1 (stereo not given) | 35.2 µM (inactive) | > 100 µM (inactive) | 58.5 | > 100 µM (inactive) | 21.3 µM (inactive) | 28.5 µM (inactive) | 4.18 µM (inactive) | 12.3 µM (inactive) | 44.7 µM (inactive) | 39.9 µM (inactive) | 34.8 µM (inactive) | 3.68 µM (inactive) | 12.4 µM (inactive) | 23.4 µM (inactive) | > 92.9 µM (inactive) | – | – | – | – | – |
| Cc1ccc(S(=O)(=O)N/N=C(/CC(=O)c2c(C)[n+]([O-])c3ccccc3[n+]2[O-])C(=O)Nc2ccccc2C)cc1 | > 100 µM (inactive) | > 100 µM (inactive) | > 100 | > 100 µM (inactive) | – | > 100 µM (inactive) | > 100 µM (inactive) | > 100 µM (inactive) | > 100 µM (inactive) | – | > 100 µM (inactive) | > 100 µM (inactive) | – | > 100 µM (inactive) | > 100 µM (inactive) | – | – | – | – | – |
| O=C1C(c2cnc3ccccc3n2)=C(O)c2ccccc21 | 6.9 µM (inactive) | > 64 µM (inactive) | 1.16 | 43.4 µM (inactive) | > 86.9 µM (inactive) | > 100 µM (inactive) | > 83 µM (inactive) | 84.3 µM (inactive) | > 93.8 µM (inactive) | 9.75 µM (inactive) | 19.1 µM (inactive) | > 74.1 µM (inactive) | > 70.5 µM (inactive) | > 95.7 µM (inactive) | > 85.3 µM (inactive) | 83.6 µM (inactive) | > 100 µM (inactive) | > 100 µM (inactive) | > 100 µM (inactive) | > 57.7 µM (inactive) |
| COC1(OC)C2(Cl)C(Cl)=C(Cl)C1(Cl)C1C2C2CC1(C(=O)O)c1ccccc12 (stereo not given) | 20.7 µM (inactive) | 25.4 µM (inactive) | 23.8 | 23.4 µM (inactive) | 15.9 µM (inactive) | 17.5 µM (inactive) | 28.8 µM (inactive) | 16.4 µM (inactive) | 27.6 µM (inactive) | 15.9 µM (inactive) | – | 30.3 µM (inactive) | 13.6 µM (inactive) | 17.5 µM (inactive) | 67.1 µM (inactive) | – | – | – | – | – |
| CC(O[Si](C)(C)C)C1C=CC(C)n2c(=O)n(-c3ccccc3)c(=O)n21 (stereo not given) | – | > 100 µM (inactive) | > 100 | > 100 µM (inactive) | > 100 µM (inactive) | > 100 µM (inactive) | > 100 µM (inactive) | > 100 µM (inactive) | < 0.01 µM (active) | > 100 µM (inactive) | > 100 µM (inactive) | > 100 µM (inactive) | > 100 µM (inactive) | > 100 µM (inactive) | > 100 µM (inactive) | – | – | – | – | – |
| Cc1cccc2c1NC(c1c(C)[nH]c3ccccc13)C2 (stereo not given) | > 100 µM (inactive) | 54.8 µM (inactive) | > 100 | > 100 µM (inactive) | > 100 µM (inactive) | 56.1 µM (inactive) | 33.4 µM (inactive) | > 100 µM (inactive) | > 100 µM (inactive) | > 100 µM (inactive) | 82.6 µM (inactive) | > 100 µM (inactive) | 63 µM (inactive) | > 100 µM (inactive) | > 100 µM (inactive) | – | – | – | – | – |
| CCCCc1c2c(nc3c1CCc1cc4cc5c(nc4nc1-3)-c1nc3c(c(CCCC)c1CC5)CCCC3)CCCC2 | 47.1 µM (inactive) | 15.7 µM (inactive) | 33.2 | 37.9 µM (inactive) | 39.4 µM (inactive) | 26.8 µM (inactive) | 38.5 µM (inactive) | 23.6 µM (inactive) | 39.3 µM (inactive) | – | 12.5 µM (inactive) | 7.28 µM (inactive) | 35.2 µM (inactive) | 34.5 µM (inactive) | 34.4 µM (inactive) | – | – | – | – | – |
| CCCC12Cc3c(OC)ccc(OC)c3CC(Cc3c(OC)ccc(OC)c31)C2=O (stereo not given) | > 100 µM (inactive) | > 100 µM (inactive) | > 100 | > 100 µM (inactive) | > 100 µM (inactive) | 34.8 µM (inactive) | – | > 100 µM (inactive) | > 100 µM (inactive) | 73.5 µM (inactive) | > 100 µM (inactive) | > 100 µM (inactive) | 7.36 µM (inactive) | 10.8 µM (inactive) | > 100 µM (inactive) | – | – | – | – | – |
| C=C1c2[nH]c3c([N+](=O)[O-])c(OC)ccc3c2CCN1C(C)=O | > 100 µM (inactive) | > 100 µM (inactive) | > 100 | > 100 µM (inactive) | > 100 µM (inactive) | > 100 µM (inactive) | > 100 µM (inactive) | > 100 µM (inactive) | 28.7 µM (inactive) | – | > 100 µM (inactive) | > 100 µM (inactive) | > 100 µM (inactive) | > 100 µM (inactive) | > 100 µM (inactive) | – | – | – | – | – |
| COc1ccc(/C=N/Nc2nc(-c3cc4oc(=O)n(C)c4cc3Cl)cs2)cc1OC | 20.7 µM (inactive) | 9.23 µM (inactive) | 6.65 | 36.2 µM (inactive) | 4.89 µM (inactive) | 5.87 µM (inactive) | 14 µM (inactive) | 33.4 µM (inactive) | 35.3 µM (inactive) | 2.36 µM (inactive) | 9.51 µM (inactive) | 9.33 µM (inactive) | 9.75 µM (inactive) | 9.04 µM (inactive) | 49.2 µM (inactive) | – | – | – | – | – |
| CC(C)(C)C1=CC(=N/N=c2\scc(-c3ccccc3)n2-c2ccccc2)C=C(C(C)(C)C)C1=O | > 100 µM (inactive) | > 100 µM (inactive) | > 100 | > 100 µM (inactive) | > 100 µM (inactive) | > 100 µM (inactive) | > 100 µM (inactive) | > 100 µM (inactive) | > 100 µM (inactive) | > 100 µM (inactive) | > 100 µM (inactive) | > 100 µM (inactive) | > 100 µM (inactive) | > 100 µM (inactive) | > 100 µM (inactive) | – | – | – | – | – |
| CC(C)(C)C(=O)CC(=O)C(C)(C)C.CC(C)(C)C(=O)CC(=O)C(C)(C)C.[SiH4] | – | 1.01 µM (active) | – | 2.33 µM (inactive) | 1.57 µM (inactive) | 0.566 µM (active) | 1.47 µM (inactive) | 2.69 µM (inactive) | 1.76 µM (inactive) | 2.1 µM (inactive) | < 0.01 µM (active) | 0.475 µM (active) | 2.11 µM (inactive) | 1.26 µM (inactive) | 1.96 µM (inactive) | – | – | – | – | – |
| COc1ccc(-c2cc(=O)c3c(OC)cccc3o2)c(OC)c1OC | > 100 µM (inactive) | > 100 µM (inactive) | > 100 | > 100 µM (inactive) | 68.5 µM (inactive) | > 100 µM (inactive) | > 100 µM (inactive) | > 100 µM (inactive) | > 100 µM (inactive) | 87.7 µM (inactive) | – | > 100 µM (inactive) | 54.6 µM (inactive) | > 100 µM (inactive) | – | – | – | – | – | – |
| CC(=O)OC1CN2CCC1CC2 (stereo not given) [ACECLIDINE] | > 100 µM (inactive) | > 100 µM (inactive) | > 100 | > 100 µM (inactive) | > 100 µM (inactive) | – | > 100 µM (inactive) | > 100 µM (inactive) | > 100 µM (inactive) | > 100 µM (inactive) | > 100 µM (inactive) | > 100 µM (inactive) | > 100 µM (inactive) | > 100 µM (inactive) | > 100 µM (inactive) | > 100 µM (inactive) | > 100 µM (inactive) | > 100 µM (inactive) | > 100 µM (inactive) | > 100 µM (inactive) |
| CC1(C)O[C@@H]2C[C@H]3[C@@H]4C[C@H](F)C5=CC(=O)C=C[C@]5(C)[C@@]4(F)[C@@H](O)C[C@]3(C)[C@]2(C(=O)CO)O1 [FLUOCINOLONE ACETONIDE] | > 100 µM (inactive) | > 100 µM (inactive) | > 100 | > 100 µM (inactive) | > 100 µM (inactive) | – | > 100 µM (inactive) | > 100 µM (inactive) | > 100 µM (inactive) | > 100 µM (inactive) | > 100 µM (inactive) | > 100 µM (inactive) | > 83.8 µM (inactive) | > 100 µM (inactive) | > 100 µM (inactive) | > 100 µM (inactive) | > 100 µM (inactive) | > 100 µM (inactive) | > 100 µM (inactive) | > 100 µM (inactive) |
